From patent US20230330134A1, “METHOD OF PROPHYLAXIS OF CORONAVIRUS AND/OR RESPIRATORY SYNCYTIAL VIRUS INFECTION” (Starpharma Pty Ltd., priority 2020, published 2023)
“And” between values parts separate entries of the source, which are not always exact repeats. Equal entries are not always repeated. Where two headings read alike, the source gives them in different places.

Tests used:
[1] = tested on: SARS-CoV-2 hCoV-19/Australia/VIC01/2020; assay: microbe, parasite or virus in culture; assay type: cell-based
[2] = tested on: SARS-CoV-2; assay type: cell-based; settings: 25 mg/mL incubated with 10^5 TCID50/mL virus, 37° C., 60 minutes; titrated on Vero cells
[3] = tested on: SARS-CoV-2 (2019-nCoV/USA-WA1/2020); assay: microbe, parasite or virus in culture; assay type: cell-based; settings: Day 4 post-infection
[4] = tested on: SARS-CoV-2 (hCoV-19/Australia/VIC01/2020); assay type: cell-based; settings: 0.345 mg/mL added 0 min to 6 h post-infection; Vero E6; MOI 1; all time points
[5] = tested on: SARS-CoV-2 (2019-nCoV/USA-WAl/2020 strain); assay type: in vivo, human ACE2 transgenic mice K18-hACE2; settings: 1%, 3% or 5% SPL7013 in PBS intranasally for 7 days (0.5, 1.5, 2.5 mg daily); significant vs control at the highest dose
[6] = tested on: SARS-CoV-1 (Urbani) Spike-pseudotyped GFP reporter lentiviral particles; assay type: cell-based
[7] = tested on: SARS-CoV-2 (Wuhan-Hu-1) Spike-pseudotyped GFP reporter lentiviral particles; assay type: cell-based; settings: 10 and 30 mg/mL, added 1 hour prior
[8] = tested on: MERS-CoV (HCoV-EMC) Spike-pseudotyped GFP reporter lentiviral particles; assay type: cell-based
[9] = molecular target: SARS-CoV-2 spike RBD recombinant protein (Severe acute respiratory syndrome coronavirus 2, UniProt P0DTC2); assay type: cell-based; settings: 1 mg/mL in PBS, 1 hour prior to challenge; confocal microscopy
[10] = tested on: Hep-2 cells; assay: Product cytotoxicity (TC50), CCK-8 assay; assay type: cell-based
[11] = Hygroscopic assessment (European Pharmacopoeia 5.11); assay type: physicochemical
Procedure: A hygroscopic assessment was performed as described in European Pharmacopoeia 5.11. Results from the assay are interpreted as follows: deliquescent -sufficient water is absorbed to form a liquid; very hygroscopic - increase in mass is equal to or greater than 15%; hygroscopic - increase in mass is less than 15% and equal to or greater than 2%; slightly hygroscopic - increase in mass is less than 2% and equal to or greater than 0.2% and not hygroscopic - if increase in mass is less than 0.2%, then the compound is not hygroscopic.

[12] = tested on: SARS-CoV-2 2019-nCoV/USA-WAl/2020; assay: Antiviral activity in primary human bronchial epithelial cells (HBEpC); assay type: cell-based; settings: 1.1, 3.3 and 10 mg/mL added 1 hour prior to infection, day 4, maximum
[13] = tested on: Vero E6 cells
[14] = tested on: Vero E6 cells; settings: Day 4
[15] = tested on: Calu-3 cells; settings: Day 4
[16] = tested on: SARS-CoV-2 (hCoV-19/Australia/VIC01/2020); settings: mixed with virus for 1 hour prior to infection of Vero E6 cells; n=1
[17] = tested on: Vero cells; settings: no virus
[18] = tested on: HCT-8 cells; settings: no virus
[19] = rats
[20] = tested on: Coronavirus strain 229E (ATCC #VR-740); settings: final 28.76 mg/mL; for CPE in four replicates, Test: MRC-5

With astodrimer sodium [SPL7013] the EC50 ([1]; added 1 hour post-infection, Vero cells, MOI 0.05, CPE by MTT after 4 days) was 400 µg/mL, the EC50 ([1]; added 1 hour pre-infection, Vero cells, MOI 0.05, CPE by MTT after 4 days) was 420 µg/mL and the EC50 ([1]; pre- and post-infection assays, read-out: EC50) was 25 µM and 24 µM. The viricidal activity [2] was “stopped all virus growth”, the EC50 ([3]; added 1-hour post-infection, Calu-3) was 30 µg/mL and the EC50 ([3]; added 1-hour post-infection, Vero E6) was 19 µg/mL. The EC50 ([3]; added 1-hour pre-infection, Calu-3) was 37 µg/mL, the EC50 ([3]; added 1-hour pre-infection, Vero E6) was 32 µg/mL and the EC50 ([3]; added at time of infection, Calu-3) was 35 µg/mL. For the same substance, the EC50 ([3]; added at time of infection, Vero E6) was 20 µg/mL, the “infectious virus titer in supernatant (TCID50) at 8 hours post-infection” value [4] was “below the lower limit of detection” and the “viral copies (qPCR) in nasal swabs at Day 7” value [5] was “dose dependent decrease”. For the same substance, the “binding/infection of Vero E6 cells by spike-pseudotyped lentivirus (GFP-positive cells, FACS)” value (“binding/infection of Vero E6 cells” for short) [6] was “potently inhibited”, the “binding/infection of Vero E6 cells” value [7] was “potently inhibited” and the “binding/infection of Vero E6 cells” value [8] was “potently inhibited”. The “binding of SARS-CoV-2 spike protein to cells expressing the hACE2 receptor” value [9] was “no detectable binding”, the “TC50, Best Fit Value” ([10]; Post Treatment) was 30900 µg/mL and the “TC50, Best Fit Value” ([10]; PreTreatment) was 35640 µg/mL. For the same substance, the hygroscopicity class [11] was “very hygroscopic (increase in mass is equal to or greater than 15%)”, the increase in mass [11] was 21.97% and the “reduction of infection in the plaque assay” value [12] was “up to 95%”. For the same substance, the “reduction of infection vs virus control by nucleocapsid ELISA” value [12] was “up to 98%”, the cytotoxicity [13] was “not observed” and the CC50 [14] was 15090 µg/mL. The CC50 [15] was 21760 µg/mL, the EC50 [16] was 1.83 µM and the “TCID50 (log10), CTC (Cytotoxicity Control)” value [17] was 1.50 log10. The “CPE in four replicates, CTC (Cytotoxicity Control)” value (“CPE in four replicates, CTC” for short) ([17]; dilution (-Log10) -2) was 0000, the “CPE in four replicates, CTC” value ([17]; dilution (-Log10) -3) was 0000 and the “CPE in four replicates, CTC” value ([17]; dilution (-Log10) -4) was 0000. The “TCID50 (log10), CTC (Cytotoxicity Control)” value [18] was 1.50 log10, the “CPE in four replicates, CTC” value ([18]; dilution (-Log10) -2) was 0000 and the “CPE in four replicates, CTC” value ([18]; dilution (-Log10) -3) was 0000. For the same substance, the “CPE in four replicates, CTC” value ([18]; dilution (-Log10) -4) was 0000, the “SPL7013 in pooled plasma sample” value ([19]; 1% group, one 3 hr sample (called an aberration)) was 0.635 µg/mL and the “SPL7013 in pooled plasma samples (LLOQ)” value ([19]; 1% or 3% Nasal Spray 4 times daily for 7 days, Day 1 and Day 7, pre-dose to 6 hr, all samples but one) was under 0.5 µg/mL. The “CPE in four replicates, Test” value ([20]; 60 seconds exposure, dilution (-Log10) -6) was 0000, the “CPE in four replicates, Test” value ([20]; 60 seconds exposure, dilution (-Log10) -7) was 0000 and the “Log10 Reduction” value ([20]; 60 seconds exposure) was 0.75 log10. For the same substance, the “Percent Reduction” value ([20]; 60 seconds exposure) was 82.22%, the “TCID50 (log10), Test” value ([20]; 60 seconds exposure) was 5.50 log10 and the “CPE in four replicates, Test” value ([20]; 60 minutes exposure, dilution (-Log10) -5) was “+0+0”. The “CPE in four replicates, Test” value ([20]; 60 minutes exposure, dilution (-Log10) -7) was 0000, the “Log10 Reduction” value ([20]; 60 minutes exposure) was 0.75 log10 and the “Percent Reduction” value ([20]; 60 minutes exposure) was 82.22%. For the same substance, the “TCID50 (log10), Test” value ([20]; 60 minutes exposure) was 5.25 log10.
